Source: patent publication US8586550B2, “Thiazole derivatives as SGLT2 inhibitors and pharmaceutical composition comprising same” (Green Cross Corporation, priority 2010, dated 2013)

The compounds below were run against T1, Human SGLT2 (hSGLT2) (Homo sapiens, UniProt P31639) (assay: Sodium-dependent glucose transport (14C-AMG uptake) assay in CHO cells stably expressing hSGLT2). Settings: CHO cells expressing hSGLT2, 14C-AMG uptake, 37° C. for 2 h; single determinations; read-out: hSGLT2 Inhibitory Activity IC50.
T1 construct: expressed in transfected cells
T1 sequence (P31639 1-672): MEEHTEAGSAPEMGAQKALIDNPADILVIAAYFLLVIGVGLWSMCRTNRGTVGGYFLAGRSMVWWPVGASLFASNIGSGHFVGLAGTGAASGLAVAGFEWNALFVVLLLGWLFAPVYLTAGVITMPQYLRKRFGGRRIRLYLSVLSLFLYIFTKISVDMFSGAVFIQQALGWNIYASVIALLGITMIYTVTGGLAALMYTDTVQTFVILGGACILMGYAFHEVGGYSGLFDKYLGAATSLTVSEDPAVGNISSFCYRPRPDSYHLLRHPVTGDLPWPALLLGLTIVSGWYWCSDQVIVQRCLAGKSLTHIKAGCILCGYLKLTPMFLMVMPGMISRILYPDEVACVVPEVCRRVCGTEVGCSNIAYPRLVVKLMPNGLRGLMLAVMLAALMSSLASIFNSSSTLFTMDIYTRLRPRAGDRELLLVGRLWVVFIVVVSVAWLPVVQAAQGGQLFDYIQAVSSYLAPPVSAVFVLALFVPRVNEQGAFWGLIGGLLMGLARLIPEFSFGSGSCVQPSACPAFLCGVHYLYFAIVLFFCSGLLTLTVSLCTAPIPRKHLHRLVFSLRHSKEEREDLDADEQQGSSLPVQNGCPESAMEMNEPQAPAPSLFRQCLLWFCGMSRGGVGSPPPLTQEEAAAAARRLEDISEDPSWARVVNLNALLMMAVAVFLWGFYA
Assay type: cell-based
Description: Cloning and Cell Line Construction for Human SGLT2
Human SGLT2 (hSGLT2) gene was amplified by PCR from cDNA-Human Adult Normal Tissue Kidney (Invitrogen). The hSGLT2 sequence was cloned into pcDNA3.1(+) for mammalian expression and were stably transfected into chinese hamster ovary (CHO) cells. SGLT2-expressing clones were selected based on resistance to G418 antibiotic (Geneticin) and activity in the ^14C-α-methyl-D-glucopyranoside (^14C-AMG) uptake assay.
Inhibitory Effects on Human SGLT2 Activities
For sodium-dependent glucose transport assay, cells expressing hSGLT2 were seeded into a 96-well culture plate at a density of 5×10^4 cells/well in RPMI medium 1640 containing 10% fetal bovine serum. The cells were used 1 day after plating. They were incubated in pretreatment buffer (10 mM HEPES, 5 mM Tris, 140 mM choline chloride, 2 mM KCl, 1 mM CaCl2, and 1 mM MgCl2, pH 7.4) at 37° C. for 10 min. They were then incubated in uptake buffer (10 mM HEPES, 5 mM Tris, 140 mM NaCl, 2 mM KCl, 1 mM CaCl2, 1 mM MgCl2, and 1 mM ^14C-nonlabeled AMG, pH 7.4) containing ^14C-labeled (8 μM) and inhibitor or dimethylsulfoxide (DMSO) vehicle at 37° C. for 2 h. Cells were washed twice with washing buffer (pretreatment buffer containing 10 mM AMG at room temperature) and then the radioactivity was measured using a liquid scintillation counter. IC50 was determined by nonlinear regression analysis using GraphPad PRISM [Katsuno, K. et al. J. Pharmacol. Exp. Ther. 2007, 320, 323-330; Han, S. et al. Deabetes, 2008, 57, 1723-1729].

Compound | IC50
OC[C@H]1O[C@@H](c2ccc(Cl)c(Cc3ncc(-c4ccco4)s3)c2)[C@H](O)[C@@H](O)[C@@H]1O [Example 5, (2S,3R,4R,5S,6R)-2-(4-Chloro-3-((5-(furan-2-yl)thiazol-2-yl)methyl)phenyl)-6-(hydroxymethyl)-tetrahydro-2H-pyran-3,4,5-triol] | 1.75 nM
OC[C@H]1O[C@@H](c2ccc(Cl)c(Cc3cnc(-c4ccc(Cl)s4)s3)c2)[C@H](O)[C@@H](O)[C@@H]1O [Example 189, (2S,3R,4R,5S,6R)-2-(4-Chloro-3-((2-(5-chlorothiophen-2-yl)thiazol-5-yl)methyl)phenyl)-6-(hydroxymethyl)tetrahydro-2H-pyran-3,4,5-triol] | 8.64 nM
OC[C@H]1O[C@@H](c2cc(Cc3ncc(-c4ccco4)s3)c(Cl)cc2F)[C@H](O)[C@@H](O)[C@@H]1O [Example 53, (2S,3R,4R,5S,6R)-2-(4-Chloro-2-fluoro-5-((5-(furan-2-yl)thiazol-2-yl)methyl)phenyl)-6-(hydroxymethyl)tetrahydro-2H-pyran-3,4,5-triol] | 3.49 nM
OC[C@H]1O[C@@H](c2cc(Cc3ncc(-c4ccsc4)s3)c(Cl)cc2F)[C@H](O)[C@@H](O)[C@@H]1O [Example 56, (2S,3R,4R,5S,6R)-2-(4-Chloro-2-fluoro-5-((5-(thiophen-3-yl)thiazol-2-yl)methyl)phenyl)-6-(hydroxymethyl)tetrahydro-2H-pyran-3,4,5-triol] | 2.12 nM
Cc1ccc([C@@H]2O[C@H](CO)[C@@H](O)[C@H](O)[C@H]2O)cc1Cc1ncc(-c2ccccc2)s1 [Example 35, (2R,3S,4R,5R,6S)-2-(Hydroxymethyl)-6-(4-methyl-3-((5-phenylthiazol-2-yl)methyl)phenyl)tetrahydro-2H-pyran-3,4,5-triol] | 4.17 nM
OC[C@H]1O[C@@H](c2ccc(Cl)c(Cc3cnc(-c4ccsc4)s3)c2)[C@H](O)[C@@H](O)[C@@H]1O [Example 190, (2S,3R,4R,5S,6R)-2-(4-Chloro-3-((2-(thiophen-3-yl)thiazol-5-yl)methyl)phenyl)-6-(hydroxymethyl)tetrahydro-2H-pyran-3,4,5-triol] | 0.901 nM
Cc1ccc([C@@H]2O[C@H](CO)[C@@H](O)[C@H](O)[C@H]2O)cc1Cc1ncc(-c2nccs2)s1 [Example 34, (2S,3R,4R,5S,6R)-2-(3-(2,5′-Bithiazol-2′-ylmethyl)-4-methylphenyl)-6-(hydroxymethyl)tetrahydro-2H-pyran-3,4,5-triol] | 5.69 nM
OC[C@H]1O[C@@H](c2cc(Cc3ncc(-c4ccco4)s3)c(Cl)cc2Cl)[C@H](O)[C@@H](O)[C@@H]1O [Example 59, (2S,3R,4R,5S,6R)-2-(2,4-Dichloro-5-((5-(furan-2-yl)thiazol-2-yl)methyl)phenyl)-6-(hydroxymethyl)tetrahydro-2H-pyran-3,4,5-triol] | 5.43 nM
OC[C@H]1O[C@@H](c2ccc(Br)c(Cc3ncc(-c4ccco4)s3)c2)[C@H](O)[C@@H](O)[C@@H]1O [Example 46, (2S,3R,4R,5S,6R)-2-(4-Bromo-3-((5-(furan-2-yl)thiazol-2-yl)methyl)phenyl)-6-(hydroxymethyl)-tetrahydro-2H-pyran-3,4,5-triol] | 1.89 nM
CCCSc1ncc(Cc2cc([C@@H]3O[C@H](CO)[C@@H](O)[C@H](O)[C@H]3O)ccc2Cl)s1 [Example 198, (2S,3R,4R,5S,6R)-2-(4-Chloro-3-((2-(propylthio)thiazol-5-yl)methyl)phenyl)-6-(hydroxymethyl)tetrahydro-2H-pyran-3,4,5-triol] | 15.4 nM
CCCc1cnc(Cc2cc([C@@H]3O[C@H](CO)[C@@H](O)[C@H](O)[C@H]3O)c(Cl)cc2Cl)s1 [Example 65, (2S,3R,4R,5S,6R)-2-(2,4-Dichloro-5-((5-propylthiazol-2-yl)methyl)phenyl)-6-(hydroxymethyl)tetrahydro-2H-pyran-3,4,5-triol] | 43.7 nM
OC[C@H]1O[C@@H](c2ccc(Cl)c(Cc3ncc(-c4nncs4)s3)c2)[C@H](O)[C@@H](O)[C@@H]1O [Example 107, (2S,3R,4R,5S,6R)-2-(3-((5-(1,3,4-Thiadiazol-2-yl)thiazol-2-yl)methyl)-4-chlorophenyl)-6-(hydroxymethyl)-tetrahydro-2H-pyran-3,4,5-triol] | 14 nM
CCc1cnc(Cc2cc([C@@H]3O[C@H](CO)[C@@H](O)[C@H](O)[C@H]3O)ccc2Cl)s1 [Example 12, (2S,3R,4R,5S,6R)-2-(4-chloro-3-((5-ethylthiazol-2-yl)methyl)phenyl)-6-(hydroxymethyl)-tetrahydro-2H-pyran-3,4,5-triol] | 16.7 nM

Further lines, results first:

IC50 | Compound
47.7 nM | OC[C@H]1O[C@@H](c2ccc(F)c(Cc3ncc(-c4ccc(F)cc4)s3)c2)[C@H](O)[C@@H](O)[C@@H]1O [Example 45, (2S,3R,4R,5S,6R)-2-(4-Fluoro-3-((5-(4-fluorophenyl)thiazol-2-yl)methyl)phenyl)-6-(hydroxymethyl)tetrahydro-2H-pyran-3,4,5-triol]
7.48 nM | OC[C@H]1O[C@@H](c2ccc(Cl)c(Cc3ncc(-c4nccs4)s3)c2)[C@H](O)[C@@H](O)[C@@H]1O [Example 9, (2S,3R,4R,5S,6R)-2-(3-(2,5′-Bithiazol-2′-ylmethyl)-4-chlorophenyl)-6-(hydroxymethyl)-tetrahydro-2H-pyran-3,4,5-triol]
3.88 nM | OC[C@H]1O[C@@H](c2cc(Cc3ncc(-c4cccs4)s3)c(Cl)cc2F)[C@H](O)[C@@H](O)[C@@H]1O [Example 55, (2S,3R,4R,5S,6R)-2-(4-Chloro-2-fluoro-5-((5-(thiophen-2-yl)thiazol-2-yl)methyl)phenyl)-6-(hydroxymethyl)tetrahydro-2H-pyran-3,4,5-triol]
20.2 nM | OC[C@H]1O[C@@H](c2ccc(Cl)c(Cc3cnc(-c4ccno4)s3)c2)[C@H](O)[C@@H](O)[C@@H]1O [Example 192, (2S,3R,4R,5S,6R)-2-(4-Chloro-3-((2-(isoxazol-5-yl)thiazol-5-yl)methyl)phenyl)-6-(hydroxymethyl)tetrahydro-2H-pyran-3,4,5-triol]
9.48 nM | CSc1ncc(Cc2cc([C@@H]3O[C@H](CO)[C@@H](O)[C@H](O)[C@H]3O)ccc2Cl)s1 [Example 197, (2S,3R,4R,5S,6R)-2-(4-Chloro-3-((2-(methylthio)thiazol-5-yl)methyl)phenyl)-6-(hydroxymethyl)tetrahydro-2H-pyran-3,4,5-triol]
14.6 nM | OC[C@H]1O[C@@H](c2ccc(C(F)(F)F)c(Cc3ncc(-c4ccsc4)s3)c2)[C@H](O)[C@@H](O)[C@@H]1O [Example 50, (2R,3S,4R,5R,6S)-2-(Hydroxymethyl)-6-(3-((5-(thiophen-3-yl)thiazol-2-yl)methyl)-4-(trifluoromethyl)phenyl)tetrahydro-2H-pyran-3,4,5-triol]
4.35 nM | CCOc1cc(Cl)c(Cc2ncc(-c3ccoc3)s2)cc1[C@@H]1O[C@H](CO)[C@@H](O)[C@H](O)[C@H]1O [Example 78, (2S,3R,4R,5S,6R)-2-(4-Chloro-2-ethoxy-5-((5-(furan-3-yl)thiazol-2-yl)methyl)phenyl)-6-(hydroxymethyl)-tetrahydro-2H-pyran-3,4,5-triol]
18.9 nM | CCCCCSc1cnc(Cc2cc([C@@H]3O[C@H](CO)[C@@H](O)[C@H](O)[C@H]3O)ccc2Cl)s1 [Example 27, (2S,3R,4R,5S,6R)-2-(4-Chloro-3-((5-(pentylthio)thiazol-2-yl)methyl)phenyl)-6-(hydroxymethyl)-tetrahydro-2H-pyran-3,4,5-triol]
